Reference: patent US20050009151A1, “Methods for the stereospecific and enantiomeric enrichment of beta-amino acids” (Pharmacia Corporation, priority 2003, published 2005)

Experiments:
[1] = system: β-aminotransferase from Alcaligenes eutrophus; experiment: Synthesis of β-amino acid from β-keto acid with cell lysate from Alcaligenes eutrophus; assay type: biochemical; details: approximately 45 mM substrate, approximately 84 mM alanine, 47 hours
Experimental: (§1) A buffer consisting of 0.3M Tricine, 15 mM MgSO4, enough pyridoxal phosphate to impart a pale yellow color and 0.3M sodium glutamate (for deamination reactions) or 0.3 M 2-ketoglutarate monopotassium salt (for synthesis reactions) was prepared.
[…] Reactions were typically run at 1 ml scale with gentle shaking at 26° C.
(§2) 10 ul of 2N HCl was added to a plastic screw capped vial and 90ul of sample was then added. The pH of the mixture confirmed to be below 4 and the mixture was centrifuged in a microcentrifuge at maximum speed for about 2 minutes to remove precipitated materials.
Samples were derivatized using Marfey's reagent, N•-(2,4-dinitro-5-fluorophenyl)-L-alaninamide. A stock solution of 10 mg/mL in acetone of this reagent was prepared. Either 20 or 40 ul of bioconversion sample was added to 20 ul 1.3 M KHCO3. To this was added 80 ul of the stock reagent solution, the vial sealed tightly, and heated at 70° C. for 10 minutes. As needed, after cooling to room temperature, the heated samples were centrifuged to remove solids. The supernatants were analyzed using an Eclipse XDB-C8 column, 4.6×150 mm, eluting with methanol gradient in water, from 50% methanol to 100% methanol. Both solvents were acidified with 0.1% trifluoroacetic acid. […]

[2] = system: Alcaligenes eutrophus L-β-aminotransferase; experiment: Amino donor screen, production of β-phenylalanine from 3-keto-3-phenylpropionic acid; assay type: biochemical; details: 200 mM amino donor, pyruvate decarboxylase, 24 hours
Experimental: The assays contained: 0.1-0.3 mg/ml protein, 10 mg/ml keto acceptor, 200 mM amino donor, 0.1 mM pyridoxal phosphate, and 100 mM potassium phosphate, at pH 8.0. 0.1 units of pyruvate decarboxylase was included to prevent the reversible reaction from reaching equilibrium. The reactions were run at 37° C. with gentle stirring for 24 hours. At 24 hours reaction time, 0.1 ml samples were withdrawn, acidified with addition of 0.1 ml 0.1N HCl, and centrifuged. The supernatant solution was collected into HPLC sample vials. Conversion of amino acid to the corresponding ketone was quantified using reverse phase HPLC. Amino donors screened were (L)-alanine, (D)-alanine, and β-alanine.

[3] = system: gamma aminobutyrate transaminase; details: J. Biochem 81, 1375-1381, 1977; cited from earlier work
[4] = system: α-alanine aminotransferase; details: J. Biochem 81, 1375-1381, 1977; cited from earlier work
[5] = system: Variovorax paradoxus β-aminotransferase; experiment: Synthesis of β-amino acid from β-keto acid with Variovorax paradoxus β-aminotransferase; assay type: biochemical; details: sodium sulfate purified β-aminotransferase, 3 hours
Experimental: as §1
One part buffer was combined with two parts lysate and this mixture was then added to pre-weighed substrate to give a concentration of 1 mg/ml substrate. Reactions were typically run at 1 ml scale with gentle shaking at 26° C.
as §2
Samples were derivatized using Marfey's reagent, N•-(2,4-dinitro-5-fluorophenyl)-L-alaninamide. A stock solution of 10 mg/mL in acetone of this reagent was prepared. Either 20 or 40 ul of bioconversion sample was added to 20 ul 1.3 M KHCO3. To this was added 80 ul of the stock reagent solution, the vial sealed tightly, and heated at 70° C. for 10 minutes. As needed, after cooling to room temperature, the heated samples were centrifuged to remove solids. The supernatants were analyzed using an Eclipse XDB-C8 column, 4.6×150 mm, eluting with methanol gradient in water, from 50% methanol to 100% methanol. Both solvents were acidified with 0.1% trifluoroacetic acid.
For synthesis experiments, in which β-keto acid was converted to β-amino acid, the area of the peak(s) was compared to a standard curve derived for β-phenylalanine.

| Compound | utilized by the enzyme as an amino donor in the production of β-phenylalanine [2] | activity on substrate [3] | activity on substrate [4] | further results |
| --- | --- | --- | --- | --- |
| O=C(O)CC(=O)c1ccccc1F [3-(2-Fluorobenzene)beta-oxopropanoic acid] | – | – | – | 2-fluoro-beta-phenylalanine formed, using beta-phenylalanine as standard [1]: approximately 0.1 mg/mL |
| C[C@@H](N)C(=O)O [(D)-alanine] | Only (L)-alanine was utilized by the enzyme | – | – | – |
| C[C@H](N)C(=O)O [(L)-alanine] | utilized by the enzyme as an amino donor | – | – | – |
| NCCCC(=O)O [gamma aminobutyrate] | – | 100 | 43 | – |
| O=C(O)C(=O)Cc1ccccc1F [o-fluoro-phenyl-2-oxopropanoic acid] | – | – | – | product stereoisomer peak observed [5]: only later eluting peak was observed; β-amino acid formed, using β-phenylalanine as standard [5]: approximately 0.02 mg/mL |
| NCCC(=O)O [β-alanine] | Only (L)-alanine was utilized by the enzyme | 3 | 100 | – |
